Ends that are not written are not given here.
Tested on: bleomycin-induced skin sclerosis
Conditions: mouse, in vivo
Experimental: Two emulsions or creams were prepared, an emulsion containing peptide P144 and a control emulsion with the vehicle for administration but without P144.
The control emulsion with the vehicle for administration was prepared by a procedure that starts with mixing of the components that are shown below in Table 2:
Next, this mixture was heated at 70° C. and was emulsified with 44.4 g of distilled water (also at 70° C.).
The emulsion containing the P144 was prepared as previously, except that the 44.4 g of water was replaced with a mixture of 44.28 g of water plus 0.010 g of P144 previously dissolved in 100 μl of dimethylsulphoxide.
The test was carried out using 6-week-old female C3H mice, supplied by Harlan SL (Spain). Development of skin sclerosis in the mice was induced by the administration of bleomycin (Sigma, Spain) dissolved in PBS at a concentration of 100 μg/ml and sterilized by filtration. The mice were injected with the bleomycin subcutaneously in the skin of the back, previously shaved, at daily doses of 100 μl of the solution in PBS injected with size 27 needles. […]
The thickness of the dermis was measured on the digitized images of the sections stained with haematoxylin and eosin, and then the percentage variation in thickness of the dermis was calculated relative to the mean of the values obtained for the mice treated with PBS, adjusted to 100%. […]

Sequence: TSLDASIIWAMMQN [Peptide P144]
- morphological changes in the epidermis: No changes were observed
- signs of systemic toxicity: without signs of systemic toxicity
